From US8227428B2, “Anti-infammatory macrolide” (Glaxo Group Limited, priority 2009, dated 2012) come the findings set out here.

Data set [1] can be described thus: Stability in buffer solutions pH 2 to pH 8 at 25° C. The data set is classed as physicochemical. The note with it: 25° C., during 24 hours. The method, then: (§1) Stability in buffer solutions pH 2 to pH 8 at 25° C., and in bio-relevant media (SGF pH 1.6, Fasted SIF pH 6.5 and Fed SIF pH 5.0) at 37° C., during 24 hours is monitored. The samples are analysed by LC/MS.
Buffer Solutions and Physiologically Relevant Media Used in Stability Assay:
LC Conditions: Instrument HP1100
Column: Waters XBridge C18, 2.1×50 mm, 3.5 μm
Guard column: Waters XBridge C18, 2.1×10 mm, 3.5 μm
• A) 0.1% HCOOH/H2O • B) 0.1% HCOOH/CH3CN Gradient Timetable: […]
(§2) Flow: 0.3 mL/min Column temp.: 25° C. Sample temp.: 25° C. (for stability assay in buffer solutions) • 37° C. (for stability assay in bio-relevant media) Injector volume: 3 μL (without injection program) MS Conditions: Instrument HP MS API-ES, positive ion mode Mass Range: 150-1500 Fragmentor: 100 Gain: 1.0 Treshold: 150 Step size: 0.20 Gas Temperature: 350° C. Drying Gas Flow: 13 L/min Nebulizer Pressure: 35 psig Capillary Voltage Positive 4000 V • Negative 4000 V Sample Preparation: a) For Stability Assay in Buffer Solutions
Compounds are dissolved in CH3CN to produce a 1 mg/mL stock solution. The stock solution is diluted to a concentration of 0.2 mg/mL (1 mL solution in 4 mL buffer) with appropriate buffer to produce a working solution.
Each solution at each pH is then dispatched into vials that are sealed and stored at room temperature in order to be analyzed at the proper time point. Before analysis, pH values of prepared sample solutions are checked and adjusted if neccessary.

In data set [2] the test system is Lung neutrophilia induced by bacterial lipopolysaccharide (LPS). Briefly: Lung neutrophilia induced by bacterial lipopolysaccharide (LPS) in male BALB/cJ mice. The note with it: average; single dose 200 mg/kg i.p.; vs LPS challenged untreated animals. The data set is classed as in vivo. How it is done:
For intraperitoneal administration (i.p.) compounds are dissolved in a final concentration of 10 mg/mL. The required amount of compound is first dissolved in dimethylsulfoxide (DMSO, Sigma) and then diluted with 0.5% (w/v) methyl-cellulose so that the final DMSO concentration is 5% (v/v). The obtained solution is applied in a dose volume of 0.2 mL per 10 g of animal. Therefore, the compound dose is 200 mg/kg.
Male BALB/cJ mice (Charles River, France), with an average weight of ˜30 g are randomly grouped (n=8 in testing group, 10 in positive control and 8 in negative control). Mice receive intraperitoneally (i.p.) a single dose of 200 mg/kg of test compound. Two hours after administration, 2 μg of LPS (from Escherichia coli serotype 0111:B4, Sigma), dissolved in sterile PBS in a volume of 60 μL, is intranasally administered to all experimental groups except the negative control group, which receive the same volume of vehicle (PBS). Animals are sacrificed approximately 24 hours after application of LPS in order to obtain bronchioalveolar lavage fluid (BALF), which is used to determine absolute number of cells and the percentage of neutrophils. Results are expressed as percentage decrease in total cell number and number of neutrophils in BALF of treated animals compared to positive control (LPS challenged, but untreated animals).

Data set [3] in a line: In vitro stability in human whole blood. The data set is classed as in vitro ADME. The settings on record: 37° C., 2000 ng/mL, over 24 hours. The method, then:
(§3) An in vitro stability study in human whole blood and plasma is carried out over 24 hours at 37° C. Drug-free freshly collected human blood (CPD—citrate-phosphate-dextrose is used for all blood collections as anticoagulant) and plasma are spiked with a previously prepared standard solution of test compound to a final concentration of 2000 ng/mL. For each compound blood and plasma are spiked in duplicate and incubated for 24 hours. Two separate aliquots of blood or plasma (50 μL) are sampled from each incubation mixture at 0, 15, 30, 60, 120, 240 and 1440 minutes. All aliquots are mixed with an equal volume of water (50 μL) and extracted with 300 μL of acetonitrile/methanol (2:1) containing internal standard (roxithromycin). The samples are then vortexed, centrifuged and analysed by LC/MS/MS (MRM mode). Results are expressed as the percentage of compound remaining, expressed as the ratio of analyte/internal standard.

Data set [4] in a line: Stability in bio-relevant media (SGF, Fasted SIF, Fed SIF) at 37° C. The note with it: SGF pH 1.6, Fasted SIF pH 6.5, Fed SIF pH 5.0, 37° C., during 24 hours. The data set is classed as physicochemical. The method, then:
as §1
SGF (Simulated Gastric Fluid) pH 1.6
Fasted SIF (Simulated Intestinal Fluid) pH 6.5
Fed SIF (Simulated Intestinal Fluid) pH 5.0
as §2
b) For Stability Assay in Bio-Relevat Media
b1) For SGF Media pH 1.6 Testing:
Compounds are dissolved in SGF media pH 1.6 to give 0.2 mg/mL solution in case of compounds 1 and 2, and to give 0.1 mg/mL solution in case of compound 3. Solutions are then stored in a water bath at 37° C. and removed at the proper time point for LC/MS analysis. Before analysis, pH values of prepared sample solutions are checked and adjusted if necessary.
b2) For Fasted SIF Media pH 6.5 Testing:
Compounds are dissolved in Fasted SIF media pH 6.5 to give 2 mg/mL solution. Solutions are then dispatched into vials that are stored in a water bath at 37° C. and removed at the proper time point and diluted 10 times with CH3CN for LC/MS analysis. Before analysis, pH values of prepared sample solutions are checked and adjusted if necessary.
b3) For Fed SIF Media pH 5.0 Testing:
Compounds are dissolved in Fed SIF media pH 5.0 to give 2 mg/mL solution. Solutions are then dispatched into vials that are stored in a water bath at 37° C. and removed at the proper time point and diluted 40 times with CH3CN for LC/MS analysis. Before analysis, pH values of prepared sample solutions are checked and adjusted if necessary.

The subject of data set [5] is Streptococcus pneumoniae ATCC49619. Briefly: Anti-bacterial screening, broth microdilution MIC. The data set is classed as cell-based. The settings on record: read-out: minimal inhibitory concentration (MIC). How it is done: (§4) Whole-cell antimicrobial activity of compounds against clinically relevant bacteria (Staphylococcus aureus ATCC13709, Streptococcus pneumoniae ATCC49619, Streptococcus pyogenes ATCC700294, Moraxella catarrhalis ATCC23246, Haemophilus influenzae ATCC49247 and Escherichia coli ATCC25922) is determined by broth microdilution using the Clinical and Laboratory Standards (CLSI) recommended procedure (Document M7-[…], Methods for Dilution Susceptibility Tests for Bacteria that Grow Aerobically). Compounds are dissolved in DMSO to produce a 50 mM stock solution. The stock solution is diluted to a concentration of 128 μg/mL in appropriate media (Haemophilus Test Medium for Haemophilus influenzae, Mueller-Hinton Broth for Staphylococcus aureus, Moraxella catarrhalis and Escherichia coli, and Mueller-Hinton Broth supplemented with 5% horse serum for Streptococcus pyogenes and Streptococcus pneumoniae) to produce a working solution. A Tecan Genesis 150 Workstation (Tecan Group Ltd. Mannedorf, Switzerland) is used to prepare serial two-fold dilutions (50 μL aliquots) of the working solution in a U-shape bottom 96 well microtitre plate. After the compounds are diluted, a 50 μL aliquot of the test isolate ( 1×10^6 cfu/ml) is added to each well of the microtitre plate. The final test concentrations range from 0.125-64 μg/mL. Inoculated plates are incubated at 35° C. in ambient air for 18 to 24 hours. The minimum inhibitory concentration (MIC) is determined as the lowest concentration of compound that inhibited visible growth.
(In general: In broth dilution the organism is exposed to a series of concentrations in liquid medium.)

The subject of data set [6] is Moraxella catarrhalis ATCC23246. The data set is described as follows: Anti-bacterial screening, broth microdilution MIC. The note with it: read-out: minimal inhibitory concentration (MIC). The data set is classed as cell-based. How it is done: as §4
For data set [7], the system named is Streptococcus pyogenes ATCC700294. Briefly: Anti-bacterial screening, broth microdilution MIC. The data set is classed as cell-based. The settings on record: read-out: minimal inhibitory concentration (MIC). The method, then: as §4
The test system of data set [8] is Staphylococcus aureus ATCC13709. The data set is described as follows: Anti-bacterial screening, broth microdilution MIC. It is filed as cell-based. The note with it: read-out: minimal inhibitory concentration (MIC). The method, then:
as §4

Data set [9] has as its system Escherichia coli ATCC25922. Briefly: Anti-bacterial screening, broth microdilution MIC. It is filed as cell-based. The note with it: read-out: minimal inhibitory concentration (MIC). How it is done: as §4
Data set [10] has as its system Haemophilus influenzae ATCC49247. The data set is described as follows: Anti-bacterial screening, broth microdilution MIC. The data set is classed as cell-based. The note with it: read-out: minimal inhibitory concentration (MIC). How it is done: as §4
Data set [11] is described as follows: In vitro stability in human plasma. It is filed as in vitro ADME. The settings on record: 37° C., 2000 ng/mL, over 24 hours. The method, then: as §3

On to `CC[C@H]1OC(=O)[C@H](C)[C@@H](O[C@H]2C[C@@](C)(OC)[C@@H](OC(=O)CN(CC)CC)[C@H](C)O2)[C@H](C)[C@@H](O[C@@H]2O[C@H](C)C[C@H](NC)[C@H]2O)[C@](C)(OC)C[C@@H](C)C(=O)N[C@H](C)[C@@H](O)[C@]1(C)O` [Example 1, 3′-N-Demethyl-4″-O-(2-diethylaminoethanoyl)-6-O-methyl-9a-aza-9a-homoerythromycin A], for which the “stability in buffers pH 2 to 8” value in data set [1] is listed as “showed stability”. Besides, in [2], the “inhibition of the number of neutrophils in BALF” value was “more than 89%”. Besides, the “stability in whole blood” value in data set [3] is “stable”. The “stability in all three bio relevant media” value in data set [4] is “Examples 1 and 3 showed stability in all three bio relevant media”. The MIC in data set [5], in [6], in data set [7], in data set [8], in data set [9] and in data set [10] was above 64 µg/mL in each case. Also, in data set [11], the stability in plasma entry was “stable”.
